Experimental findings from patent US5055484A, “7(1H-pyrrol-3-YL)-substituted 3,5-dihydroxyhept-6-enoic acids, 7-(1H-pyrrol-3-YL)-substituted 3,5-dihyroxyhept-anoic acids, their corresponding delta-lactones and salts, their use as medicaments and pharmaceutical products and intermediates” (Hoechst Aktiengesellschaft, priority 1987, dated 1991) are described below.

In one assay the target is T1, HMG--CoA reductase (Rattus norvegicus, UniProt P51639).
T1 sequence (P51639 1-887): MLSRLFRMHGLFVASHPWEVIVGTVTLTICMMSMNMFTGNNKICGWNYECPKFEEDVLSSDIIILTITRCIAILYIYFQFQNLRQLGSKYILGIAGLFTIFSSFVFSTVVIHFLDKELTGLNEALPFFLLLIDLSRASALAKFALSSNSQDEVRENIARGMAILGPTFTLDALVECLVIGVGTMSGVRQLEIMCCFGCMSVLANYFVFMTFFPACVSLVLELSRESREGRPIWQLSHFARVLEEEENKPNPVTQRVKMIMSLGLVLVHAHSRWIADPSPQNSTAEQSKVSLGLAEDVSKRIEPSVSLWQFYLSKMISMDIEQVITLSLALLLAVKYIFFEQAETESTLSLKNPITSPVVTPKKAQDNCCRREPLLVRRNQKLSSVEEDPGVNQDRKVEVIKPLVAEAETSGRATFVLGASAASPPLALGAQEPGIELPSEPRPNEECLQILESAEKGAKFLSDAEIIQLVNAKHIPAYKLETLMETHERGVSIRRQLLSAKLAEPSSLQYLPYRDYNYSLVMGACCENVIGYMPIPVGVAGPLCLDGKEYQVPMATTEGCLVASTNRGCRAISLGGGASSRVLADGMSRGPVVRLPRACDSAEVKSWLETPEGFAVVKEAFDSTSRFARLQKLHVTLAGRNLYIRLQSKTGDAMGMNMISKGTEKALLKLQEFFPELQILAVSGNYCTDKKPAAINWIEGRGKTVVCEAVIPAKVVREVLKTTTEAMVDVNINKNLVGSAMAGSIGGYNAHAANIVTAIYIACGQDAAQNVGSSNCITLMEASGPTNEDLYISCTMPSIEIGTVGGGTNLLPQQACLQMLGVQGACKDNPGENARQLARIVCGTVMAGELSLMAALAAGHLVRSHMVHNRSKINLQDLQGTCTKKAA
In words: inhibition of HMG-CoA reductase activity on solubilized enzyme preparations from rat liver microsomes. Format: biochemical. As for the experimental part: The inhibition of HMG--CoA reductase activity by the compounds of the general formulae I and II was determined on solubilized enzyme preparations from rat liver microsomes.
After a changeover in the day/night rhythm of the rats, enzyme production was induced with cholestyramine (®Cuemid) The substrate used was (S,R) ^14 C--HMG--CoA, and the concentration of NADPH was maintained by a regenerating system during the incubation. ^14 C-mevalonate was removed from substrate and other products (for example ^14 C--HMG) by column elution, with the elution profile of each individual sample being determined. Inclusion of ^3 H-mevalonate throughout was dispensed with because the data to be determined were of the relative inhibitory effect. In each test series the enzyme-free control, the enzyme-containing normal mixture (=100%) and those with added products were treated together. Each individual value was formed as the mean of 3 parallel samples. The t test was used to assess the significance of the differences between the means for product-free and productcontaining samples.
A general note: Liver microsomes are vesicles of endoplasmic reticulum, rich in cytochrome P450 enzymes.

For a further assay, the system named is cholesterol biosynthesis. In words: inhibition of cholesterol biosynthesis by incorporation of 14C-acetate into cholesterol in HEP G2 cell cultures. Format: cell-based. Particulars: for % potency relative to mevinolin sodium at IC70: comparison of IC70 with mevinolin sodium salt (internal standard). As for the experimental part: In addition, the inhibition of cholesterol biosynthesis by selected compounds was tested by the incorporation of ^14 C-precursor in cholesterol in cell cultures.
Monolayers of HEP G2 cells in lipoprotein-free nutrient medium were preincubated with various concentrations of the test substances for 1 hour. The ^14 C-labeled precursor sodium ^14 C-acetate was added, and the incubation was then continued for 3 hours. Subsequently 3H-cholesterol was added as internal standard, and a portion of these cells underwent alkaline hydrolysis. The lipids from the hydrolyzed cells were extracted with chloroform/methanol. Carrier cholesterol was added to this lipid mixture which was then subjected to preparative thin-layer chromatography, the cholesterol band was visualized with iodine vapor and then isolated, and the amount of ^14 C-cholesterol formed from the ^14 C-precursor was determined by scintigraphy. Cellular protein was determined in an aliquot of the cells, so that the amount of ^14 C-cholesterol formed from ^14 C-precursor in unit time per mg of cellular protein can be calculated. The solvent control is used for comparison of the inhibitory effect of an added test product, so that it is possible to state directly the inhibition of cholesterol biosynthesis at a particular molar concentration of the test product in the medium. The integrity of the cell culture and the absence of cell damage due to exposure to the products was checked morphologically (light microscope) in an aliquot of the cell cultures. […] The relative potency was determined by comparing the IC70 values and IC50 values for the test compound and for mevinolin sodium salt (internal standard).

The mark [1] stands for this setting: HEP G2 cells, 1 h preincubation, 3 h with 14C-acetate.

With `COC(=O)C[C@H](O)C[C@H](O)CCc1c(-c2ccc(F)cc2)c(C)n(-c2ccccc2)c1C` (racemic) [Example 3, Methyl 3(RS),5(RS)-dihydroxy-7-[1-phenyl-2,5-dimethyl-4-(4-fluorophenyl)-1H-pyrrol-3-yl]heptanoate], on HMG--CoA reductase, the IC50 is 80 nM.
In turn, `Cc1c(CC[C@@H](O)C[C@@H](O)CC(=O)[O-])c(-c2ccc(F)cc2)c(C)n1-c1ccccc1.[Na+]` (racemic) [Example 4, Sodium 3(RS),5(RS)-dihydroxy-7-[1-phenyl-2,5-dimethyl-4-(4-fluorophenyl)-1H-pyrrol-3-yl]heptanoate] gave an IC50 against HMG--CoA reductase of 8.7 nM. In addition, in the assay on cholesterol biosynthesis (HEP G2 cells, 1 h preincubation, 3 h with 14C-acetate, comparison of IC50 with mevinolin sodium salt (internal standard)), the “% potency relative to mevinolin sodium at IC50” value was determined as 450%. For the same molecule, the “% potency relative to mevinolin sodium at IC70” value with cholesterol biosynthesis (setting [1]) is 51%.
For the molecule `COC(=O)C[C@H](O)C[C@H](O)CCc1c(-c2ccc(F)cc2)c(C)n(-c2ccccc2)c1C(C)C` (racemic) [Example 7, Methyl 3(RS),5(RS)-dihydroxy-7-[1-phenyl-2-isopropyl-4-(4-fluorophenyl)-5-methyl-1H-pyrrol-3-yl]heptanoate], the IC50 on HMG--CoA reductase is 8 nM.
On the same count and under the same terms, the figure for `Cc1c(-c2ccc(F)cc2)c(CC[C@@H](O)C[C@@H](O)CC(=O)O)c(C(C)C)n1-c1ccccc1` (racemic) [Example 8, Sodium 3(RS),5(RS)-dihydroxy-7-[1-phenyl-2-isopropyl-4-(4-fluorophenyl)-5-methyl-1H-pyrrol-3-yl]heptanoate] is 2.5 nM; for `COC(=O)C[C@H](O)C[C@H](O)CCc1c(-c2ccc(F)cc2)cn(-c2ccccc2)c1C(C)C` (racemic) [Example 13, Methyl 3(RS),5(RS)-dihydroxy-7-[1-phenyl-2-isopropyl-4(4-fluorophenyl)-1H-pyrrol-3-yl]heptanoate] it is 15 nM.
In turn, `CC(C)c1c(CC[C@@H](O)C[C@@H](O)CC(=O)[O-])c(-c2ccc(F)cc2)cn1-c1ccccc1.[Na+]` (racemic) [Example 14, Sodium 3(RS),5(RS)-dihydroxy-7-[1-phenyl-2-isopropyl-4-(4-fluorophenyl)-1H-pyrrol-3-yl]heptanoate] had an IC50 against HMG--CoA reductase of 3 nM. The “% potency relative to mevinolin sodium at IC70” value in the assay on cholesterol biosynthesis (setting [1]) stood at 150%.
In turn, `COC(=O)C[C@H](O)C[C@H](O)CCc1c(-c2ccc(F)cc2)cn(C(C)C)c1C` (racemic) [Example 17, Methyl 3(RS),5(RS)-dihydroxy-7-[1-isopropyl-2-methyl-4-(4-fluorophenyl)-1H-pyrrol-3-yl]heptanoate] had a half-inhibitory concentration (IC50) at HMG--CoA reductase of 100 nM.
On to `Cc1c(CC[C@@H](O)C[C@@H](O)CC(=O)O)c(-c2ccc(F)cc2)cn1C(C)C` (racemic) [Example 18, Sodium 3(RS),5(RS)-dihydroxy-7-[1-isopropyl-2-methyl-4-(4-fluorophenyl)-1H-pyrrol-3-yl]heptanoate], for which 50 nM corresponded to half-maximal inhibition against HMG--CoA reductase (IC50).
The same measure, in the same setting: in the case of `CC(C)c1c(CC[C@@H](O)C[C@@H](O)CC(=O)O)c(-c2ccc(F)cc2)cn1C(C)C` (racemic) [Example 26, Sodium 3(RS),5(RS)-dihydroxy-7-[1,2-diisopropyl-4-(4-fluorophenyl)-1H-pyrrol-3-yl]heptanoate] it was 3 nM.
`COC(=O)C[C@H](O)C[C@H](O)/C=C/c1c(-c2ccc(F)cc2)c(C)n(-c2ccccc2)c1C` (relative stereo) [Example 1, methyl 3(RS),5(SR)-dihydroxy-7-[1-phenyl-2,5-dimethyl-4-(4-fluorophenyl)-1H-pyrrol-3-yl]hept-6(E)-enoate]: at HMG--CoA reductase, the IC50 worked out at 320 nM. For the same molecule, the “% potency relative to mevinolin sodium at IC70” value with cholesterol biosynthesis (setting [1]) is recorded as 180%.
For `Cc1c(/C=C/[C@@H](O)C[C@@H](O)CC(=O)O)c(-c2ccc(F)cc2)c(C)n1-c1ccccc1` (relative stereo) [Example 2, Sodium 3(RS),5(SR)-dihydroxy-7-[1-phenyl-2,5-dimethyl-4-(4-fluorophenyl)-1H-pyrrol-3-yl]hept-6(E)-enoate], the IC50 against HMG--CoA reductase stood at 120 nM.
The same measure, in the same setting: in the case of `COC(=O)C[C@H](O)C[C@H](O)/C=C/c1c(-c2ccc(F)cc2)c(C)n(-c2ccccc2)c1C(C)C` (relative stereo) [Example 5, Methyl 3(RS),5(SR)-dihydroxy-7-[1-phenyl-2-isopropyl-4-(4-fluorophenyl)-5-methyl-1H-pyrrol-3-yl]hept-6(E)-enoate] it was 7 nM; in that of `COC(=O)C[C@H](O)C[C@H](O)/C=C/c1c(-c2ccc(F)cc2)cn(-c2ccccc2)c1C` (relative stereo) [Example 9, methyl 3(RS),5(SR)-dihydroxy-7-[1-phenyl-2-methyl-4-(4-fluorophenyl)-1H-pyrrol-3-yl]hept-6(E)-enoate], 120 nM; in that of `COC(=O)C[C@H](O)C[C@H](O)/C=C/c1c(-c2ccc(F)cc2)cn(-c2ccccc2)c1C(C)C` (relative stereo) [Example 11, methyl 3(RS),5(SR)-dihydroxy-7-[1-phenyl-2-isopropyl-4-(4-fluorophenyl)-1H-pyrrol-3-yl]hept-6(E)-enoate], 8 nM.
The same measure, in the same setting: the figure for `COC(=O)C[C@H](O)C[C@H](O)/C=C/c1c(-c2ccc(F)cc2)cn(C(C)C)c1C` (relative stereo) [Example 15, methyl 3(RS),5(SR)-dihydroxy-7-[1-isopropyl-2-methyl-4-(4-fluorophenyl)-1H-pyrrol-3-yl]hept-6(E)-enoate] is 70 nM; for `Cc1c(/C=C/[C@@H](O)C[C@@H](O)CC(=O)O)c(-c2ccc(F)cc2)cn1C(C)C` (relative stereo) [Example 16, Sodium 3(RS),5(SR)-dihydroxy-7-[1-isopropyl-2-methyl-4-(4-fluorophenyl)-1H-pyrrol-3-yl]hept-6(E)-enoate] it is 160 nM.
Still for that read-out and setting: the figure for `CC(C)c1c(/C=C/[C@@H](O)C[C@@H](O)CC(=O)O)c(-c2ccc(F)cc2)cn1C1CCCCC1` (relative stereo) [Example 20, Sodium 3(RS),5(SR)-dihydroxy-7-[1-cyclohexyl-2-isopropyl-4(4-fluorophenyl)-1H-pyrrol-3-yl]hept-6(E)-enoate] is 12 nM.
With `CC[C@H](C)C(=O)O[C@H]1C[C@@H](C)C=C2C=C[C@H](C)[C@H](CC[C@@H](O)C[C@@H](O)CC(=O)O)[C@H]21` [mevinolin sodium, reference compound], it took 150 nM to reach the 70% level with cholesterol biosynthesis (Homo sapiens, HepG2) (IC70). The IC50 in the assay on cholesterol biosynthesis (Homo sapiens, HepG2, HEP G2 cells, mean figure, varies somewhat from cell culture to cell culture) is 50 nM.

Usually IC50 stands for the midpoint of a concentration-inhibition curve. A lower IC50 goes with greater potency. The IC70 is the point of the concentration-response curve where the effect stands at 70%.
